One assay deals with HeLa cells. In words: HeLa cell 24 hr ploidy assay (DNA content). The class given is cell-based. The following applies: HeLa cells, 4N ploidy, average, read-out: 24h_4NPloidy EC50_IP (uM Avg). A digest of the protocol:
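DNA content measured by Hoechst 33342 nuclear staining (0.5 ug/ml, 45 min RT) and high-content imaging of fixed HeLa cells after 24 h compound exposure in 0.25% DMSO. Fractions of 4N and >4N cells fitted to dose curves giving EC50 IP, EC50 transit, Max and Min.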
`c1ccc(-c2nnc(Nc3ccc(Sc4ccnc5cccnc45)cc3)c3ccccc23)cc1` [compound 285]: the EC50 amounted to 0.009 µM.

The same assay, now with this note: Homo sapiens, HeLa, 4N ploidy, average, read-out: 24h_4NPloidy EC50_IP (uM Avg).
With `CCCc1cc(-c2ccccc2)nnc1Nc1ccc(Oc2ccnc3cc(OC)cnc23)cc1` [compound 156], the EC50 worked out at 0.061 µM.

Regarding `COc1cnc2c(Oc3ccc(Nc4nnc(N5CCN6CCC[C@H]6C5)c5ccccc45)cc3)ccnc2c1` [compound 97], the EC50 came to 0.026 µM. The same measure, in the same setting: as for `CCc1cc(-c2ccccc2)nnc1Nc1ccc(Oc2ccnc3cc(OC)cnc23)cc1` [compound 108], the figure is 0.083 µM. Still for that read-out and setting: as for `COc1cnc2c(Oc3ccc(Nc4nnc(N5CCN6CCCC6C5)c5ccccc45)cc3)ccnc2c1` (stereo not drawn) [compound 92], the figure is 0.054 µM; as for `COCc1cccc(-c2nnc(Nc3ccc(Oc4ccnc5cc(OC)cnc45)cc3)c3ccccc23)n1` [compound 120], 0.305 µM; as for `COc1cc2nccc(Oc3ccc(Nc4nnc(-n5nc(C)cc5C)c5ccccc45)cc3F)c2cc1OC` [compound 77], 3.09 µM. Same read-out and setting: as for `N#Cc1ccc2c(Oc3ccc(Nc4nnc(-c5ccccc5)c5ccccc45)cc3)ccnc2c1` [compound 105], the figure is 0.036 µM; as for `COc1cc2nccc(Oc3ccc(Nc4nnc(-c5cc(C)ccn5)c5ccccc45)cc3)c2cc1OC` [compound 117], 0.066 µM; as for `COc1cnc2c(Oc3ccc(Nc4nnc(-c5ccc6c(c5)CC(C)(C)O6)c5ccccc45)cc3)ccnc2c1` [compound 136], 0.099 µM.

The same assay, now with this note: Homo sapiens, HeLa, HeLa cells, 4N ploidy, average, read-out: 24h_4NPloidy EC50_IP (uM Avg).
As to `c1ccc2c(-c3ccc4c(c3)OCO4)nnc(Nc3ccc(Sc4ccnc5ccoc45)cc3)c2c1` [compound 467], the EC50 was 0.016 µM. On the same count and under the same terms, as for `CCCc1cc(-c2ccccc2)nnc1Nc1ccc(Oc2ccnc3cc(C#N)ccc23)cc1` [compound 196], the figure is 0.342 µM. On the same count and under the same terms, for `COc1cc(OC)c2c(Sc3ccc(Nc4nnc(-c5cc(C)cs5)c5ccccc45)cc3)ccnc2c1` [compound 439] the value was 0.113 µM; for `COc1cc2nccc(Oc3ccc(Nc4nnc(-c5ccc(C)cc5)c5ccccc45)cc3)c2cc1C(N)=O` [compound 211], 0.002 µM. Consider `Cn1cc(-c2ccc3c(Oc4ccc(Nc5nnc(-c6ccccc6)c6ccccc56)cc4)ccnc3c2)cn1` [compound 338, N-(4-(7-(1-methyl-1H-pyrazol-4-yl)quinolin-4-yloxy)phenyl)-4-phenylphthalazin-1-amine], for which the EC50 came to 0.005 µM. Still for that read-out and setting: for `Cn1cncc1-c1cc2nccc(Oc3ccc(Nc4nnc(-c5ccc(Cl)cc5)c5ccccc45)cc3)c2s1` [compound 249] the value was 0.008 µM. Same read-out and setting: as for `Clc1ccc(-c2nnc(Nc3ccc(Sc4ccnc5ccoc45)cc3)c3ccccc23)nc1` [Example 391, 4-(5-Chloropyridin-2-yl)-N-(4-(furo[3,2-b]pyridin-7-ylthio)phenyl)phthalazin-1-amine], the figure is 0.032 µM; as for `COc1cnc2c(Sc3ccc(Nc4nnc(OCC(F)(F)F)c5ccccc45)cc3)ccnc2c1` [compound 513], 0.059 µM; as for `CCOc1nc(-c2nnc(Nc3ccc(Sc4ccnc5cc(OC)cnc45)cc3)c3ccccc23)cs1` [compound 505], 0.022 µM. Same read-out and setting: as for `COc1cnc2c(N(C)c3ccc(Nc4nnc(-c5ccccc5)c5ccccc45)cc3)ccnc2c1` [compound 51, N-methyl-N-(7-(methyloxy)-1,5-naphthyridin-4-yl)-N′-(4-phenyl-1-phthalazinyl)-1,4-benzenediamine], the figure is 0.372 µM; as for `COc1cnc2c(Oc3ccc(Nc4nnc(-c5sccc5C)c5ccccc45)cc3)ccnc2c1` [compound 185], 0.241 µM; as for `COc1ccc2nccc(Oc3ccc(Nc4nnc(-c5cc(C)cs5)c5ccccc45)cc3)c2c1` [compound 269], 0.016 µM. On to `Cc1csc(-c2nnc(Nc3ccc(Sc4ccnc5cc(C#N)sc45)cc3)c3ccccc23)c1` [compound 459], for which the EC50 came to 0.048 µM. Still for that read-out and setting: for `COc1cnc2c(Sc3ccc(Nc4nnc(N5CCc6sccc6C5)c5ccccc45)cc3)ccnc2c1` [compound 578] the value was 0.007 µM; for `CCc1cc(-c2ccc(C)cc2)nnc1Nc1ccc(Oc2ccnc3cc(OC)cnc23)cc1` [compound 307], 0.023 µM.

`COc1cnc2c(Sc3ccc(Nc4nnc(NCCc5ccccn5)c5ccccc45)cc3)ccnc2c1` [compound 537]: the EC50 worked out at 0.002 µM.

`COc1cnc2c(Sc3ccc(Nc4nnc(-c5ccccc5)c5ccccc45)cc3F)ccnc2c1` [compound 519]: the EC50 is 0.009 µM. Same read-out and setting: as for `Cc1ccc(-c2nnc(Nc3ccc(Oc4ccnc5ccoc45)cc3)c3ccccc23)cc1N` [compound 480], the figure is 0.112 µM. The same measure, in the same setting: as for `Cc1noc(-c2cc3nccc(Sc4ccc(Nc5nnc(-c6ccccc6)c6ccccc56)cc4)c3s2)n1` [compound 303, N-(4-((2-(3-methyl-1,2,4-oxadiazol-5-yl)thieno[3,2-b]pyridin-7-yl)thio)phenyl)-4-phenyl-1-phthalazinamine], the figure is 0.25 µM; as for `c1ccc(-c2nnc(Nc3ccc(Sc4ncnc5ccccc45)cc3)c3ccccc23)cc1` [compound 561], above 1.2 µM; as for `FC(F)(F)Oc1ccc2nccc(Oc3ccc(Nc4nnc(-c5ccc(Cl)cc5)c5ccccc45)cc3)c2c1` [compound 574], 0.119 µM.

For `Cc1csc(-c2nnc(Nc3ccc(Sc4ccnc5ccn(C(C)C)c45)cc3)c3ccccc23)c1` [compound 472], the EC50 was found to be 0.007 µM.

For `COc1cnc2c(Oc3ccc(Nc4nnc(-c5ccccc5)c5c4CCC5)cc3)ccnc2c1` [compound 367], the EC50 stood at 0.039 µM. Still for that read-out and setting: for `FC1(F)Oc2ccc(-c3nnc(Nc4ccc(Oc5ccnc6ccsc56)cc4)c4ccccc34)cc2O1` [compound 293] the value was 0.045 µM. The same measure, in the same setting: as for `Cn1cncc1-c1cc2nccc(Oc3ccc(Nc4nnc(-c5ccccc5)c5ccccc45)cc3)c2s1` [compound 202, N-(4-((2-(1-methyl-1H-imidazol-5-yl)thieno[3,2-b]pyridin-7-yl)oxy)phenyl)-4-phenyl-1-phthalazinamine], the figure is 0.011 µM. In the case of `COc1cnc2c(Sc3ccc(Nc4nnc(C5=CCNCC5)c5ccccc45)cc3)ccnc2c1` [Example 401, N-(4-(7-Methoxy-1,5-naphthyridin-4-ylthio)phenyl)-4-(1,2,3,6-tetrahydropyridin-4-yl)phthalazin-1-amine], the EC50 amounted to 0.187 µM. On the same count and under the same terms, as for `COc1cnc2c(Oc3ccc(Nc4nnc(-c5ccc(C)c(N)c5)c5ccccc45)cc3)ccnc2c1` [compound 209], the figure is 0.004 µM; as for `Cc1cc2nccc(Sc3ccc(Nc4nnc(-c5ccc(Cl)cc5)c5ccccc45)cc3)c2o1` [compound 491], 0.037 µM. Same read-out and setting: as for `COc1cnc2c(Sc3ccc(Nc4nnc(N5CCCC(C)(C)C5)c5ccccc45)cc3)ccnc2c1` [compound 555], the figure is 0.064 µM; as for `COc1cnc2c(Sc3ccc(Nc4nnc(NCCCSC)c5ccccc45)cc3)ccnc2c1` [compound 508], 0.072 µM. On the same count and under the same terms, for `Cc1ccsc1-c1nnc(Nc2ccc(Oc3ccnc4cc(C#N)ccc34)cc2)c2ccccc12` [compound 184] the value was 0.13 µM; for `c1ccc(-c2nnc(Nc3ccc(Oc4ccnc5ccc(N6CCOCC6)cc45)cc3)c3ccccc23)cc1` [compound 264], 0.387 µM. As to `CC(=O)Nc1ccc2nccc(Oc3ccc(Nc4nnc(-c5ccccc5)c5ccccc45)cc3)c2c1` [Example 43, N-(4-(4-(4-Phenylphthalazin-1-ylamino)phenoxy)quinolin-6-yl)acetamide], the EC50 was found to be 0.025 µM. Same read-out and setting: for `COc1cc2nccc(Sc3ccc(Nc4nnc(-c5ccc(Cl)cc5)c5ccccc45)cc3)c2cn1` [compound 354] the value was 0.007 µM; for `Cc1csc(-c2nnc(Nc3ccc(Sc4ccnc5ccncc45)cc3)c3ccccc23)c1` [compound 428], 0.016 µM. For `COc1cc(F)cc2nccc(Sc3ccc(Nc4nnc(-c5ccc(Cl)cc5)c5ccccc45)cc3)c12` [compound 438], the EC50 came to 0.016 µM. The same measure, in the same setting: for `FC1(F)Oc2ccc(-c3nnc(Nc4ccc(Sc5ccnc6cccnc56)cc4)c4ccccc34)cc2O1` [compound 444] the value was 0.024 µM.

On to `O=C(c1cc2nccc(Sc3ccc(Nc4nnc(-c5ccc(Cl)cc5)c5ccccc45)cc3)c2s1)N1CCOCC1` [compound 314], for which the EC50 is 0.03 µM.

Consider `Clc1ccc(-c2nnc(Nc3ccc(Sc4ccnc5ccsc45)cc3)c3ccccc23)cc1` [compound 332], for which the EC50 was determined as 0.001 µM.

For the compound `Clc1ccc(-c2nnc(Nc3ccc(CN4CCOc5ccccc54)cc3)c3ccccc23)cc1` [compound 349], the EC50 was above 1.2 µM. On the same count and under the same terms, as for `FC(F)Oc1cnc2c(Sc3ccc(Nc4nnc(-c5ccccc5)c5ccccc45)cc3)ccnc2c1` [Example 387, N-(4-(7-(difluoromethoxy)-1,5-naphthyridin-4-ylthio)phenyl)-4-phenylphthalazin-1-amine], the figure is 0.12 µM. Take `COCCOCCn1c(=O)ccc2nccc(Sc3ccc(Nc4nnc(-c5ccc(Cl)cc5)c5ccccc45)cc3)c21` [compound 476]: the EC50 is 0.14 µM. For `COc1ccc2nccc(Oc3ccc(Nc4nnc(-c5ccc(C)cn5)c5ccccc45)cc3)c2c1` [compound 554], the EC50 came out at 0.108 µM. Still for that read-out and setting: as for `COc1cnc2c(Oc3ccc(Nc4nnc(-c5ccc(OC)c(F)c5)c5ccccc45)cc3)ccnc2c1` [compound 227], the figure is 0.061 µM. Same read-out and setting: for `Clc1ccc(-c2nnc(Nc3ccc(Cn4cnc5ccccc54)cc3)c3ccccc23)cc1` [compound 341] the value was at least 1.2 µM.

Take `COCCOc1ccc(-c2nnc(Nc3ccc(Sc4ccnc5cc(OC)cnc45)cc3)c3ccccc23)cc1` [compound 474]: the EC50 came to 0.024 µM.

Still in this assay, the particulars now being: Homo sapiens, HeLa, HeLa cells, average, read-out: 24h_4NPloidy EC50_IP (uM Avg).
In the case of `COc1cnc2c([S+]([O-])c3ccc(Nc4nnc(-c5ccc(F)cc5)c5ccccc45)cc3)ccnc2c1` (stereo not drawn) [Example 410, 4-(4-fluorophenyl)-N-(4-(7-methoxy-1,5-naphthyridin-4-ylsulfinyl)phenyl)phthalazin-1-amine], the EC50 is 0.26 µM.

The values above are taken from patent US20140336182A1, “Aurora Kinase Modulators and Method of Use” (Amgen Inc., priority 2013, published 2014).
